Laboratory results published in PubChem BioAssay (NCI).
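96-well plates; 48 h exposure; 5 concentrations. Endpoints by linear interpolation between flanking doses. Not reached: highest tested concentration assigned. GI50 = concentration required for 50% inhibition of growth. TGI: total growth inhibition.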

What was measured:
Assay in all cases: DTP human tumour cell line panel, 48 h
[1] = test system: OVCAR-8 ovarian
[2] = test system: RPMI-8226 leukemia
[3] = test system: MDA-MB-231 breast
[4] = test system: OVCAR-4 ovarian
[5] = test system: SF-539 CNS
[6] = test system: SF-268 CNS
[7] = test system: SK-OV-3 ovarian
[8] = test system: CAKI-1 renal
[9] = test system: NCI/ADR-RES ovarian
[10] = test system: M14 melanoma
[11] = test system: KM12 colon
[12] = test system: PC-3 prostate
[13] = test system: MALME-3M melanoma
[14] = test system: MOLT-4 leukemia
[15] = test system: HOP-92 NSCLC
[16] = test system: HS 578T breast
[17] = test system: SNB-75 CNS
[18] = test system: HL-60(TB) leukemia
[19] = test system: HOP-62 NSCLC
[20] = test system: UACC-62 melanoma
[21] = test system: HT29 colon
[22] = test system: T-47D breast
[23] = test system: OVCAR-3 ovarian
[24] = test system: SK-MEL-28 melanoma
[25] = test system: EKVX NSCLC
[26] = test system: SK-MEL-2 melanoma
[27] = test system: SW-620 colon
[28] = test system: SF-295 CNS
[29] = test system: HCT-15 colon
[30] = test system: IGROV1 ovarian
[31] = test system: A549 NSCLC
[32] = test system: HCT-116 colon
[33] = test system: LOX IMVI melanoma
[34] = test system: NCI-H23 lung
[35] = test system: SN12C renal
[36] = test system: UACC-257 melanoma
[37] = test system: BT-549 breast
[38] = test system: A498 renal
[39] = test system: ACHN renal
[40] = test system: SNB-19 CNS
[41] = test system: CCRF-CEM leukemia
[42] = test system: 786-0 renal
[43] = test system: MDA-MB-468 breast
[44] = test system: NCI-H460 lung
[45] = test system: TK-10 renal
[46] = test system: COLO 205 colon
[47] = test system: OVCAR-5 ovarian
[48] = test system: NCI-H226 lung
[49] = test system: UO-31 renal
[50] = test system: NCI-H522 lung
[51] = test system: SK-MEL-5 melanoma
[52] = test system: MCF7 breast
[53] = test system: K-562 leukemia
[54] = test system: MDA-MB-435
[55] = test system: HCC-2998 colon
[56] = test system: RXF 393 renal
[57] = test system: U251 CNS
[58] = test system: DU-145 prostate

SMILES: CC(=O)/C=C/c1cccc2c1C(=O)NC(C)(c1cc3cc(Br)ccc3oc1=O)N2 (stereo unspecified)
- GI50 [1]: 10.1 µM
- TGI [1]: > 100 µM
- GI50 [2]: 4.04 µM
- TGI [2]: 33.8 µM
- GI50 [3]: 7.35 µM
- TGI [3]: 39.6 µM
- GI50 [4]: 11.5 µM
- TGI [4]: > 100 µM
- GI50 [5]: 8.67 µM
- TGI [5]: 22.3 µM
- GI50 [6]: 12.4 µM
- TGI [6]: 48.3 µM
- GI50 [7]: 25.2 µM
- TGI [7]: > 100 µM
- GI50 [8]: 3.87 µM
- TGI [8]: 28.5 µM
- GI50 [9]: 15 µM
- TGI [9]: 44.5 µM
- GI50 [10]: 9.29 µM
- TGI [10]: 25.3 µM
- GI50 [11]: 12.4 µM
- TGI [11]: 30.8 µM
- GI50 [12]: 5.95 µM
- TGI [12]: 39.1 µM
- GI50 [13]: 11.4 µM
- TGI [13]: 29.9 µM
- GI50 [14]: 8.47 µM
- TGI [14]: > 100 µM
- GI50 [15]: 2.19 µM
- TGI [15]: 18 µM
- GI50 [16]: 17.2 µM
- TGI [16]: > 100 µM
- GI50 [17]: 1.3 µM
- TGI [17]: 19.3 µM
- GI50 [18]: 5.61 µM
- TGI [18]: > 100 µM
- GI50 [19]: 15.7 µM
- TGI [19]: 44 µM
- GI50 [20]: 7.01 µM
- TGI [20]: 21.3 µM
- GI50 [21]: 20.7 µM
- TGI [21]: 73.6 µM
- GI50 [22]: 11.5 µM
- TGI [22]: 64 µM
- GI50 [23]: 7.56 µM
- TGI [23]: 24.7 µM
- GI50 [24]: 13.7 µM
- TGI [24]: 27.8 µM
- GI50 [25]: 7.36 µM
- TGI [25]: 21 µM
- GI50 [26]: 10.2 µM
- TGI [26]: 27.3 µM
- GI50 [27]: 19.5 µM
- TGI [27]: > 100 µM
- GI50 [28]: 11.1 µM
- TGI [28]: 25.4 µM
- GI50 [29]: 10.6 µM
- TGI [29]: 32.4 µM
- GI50 [30]: 8.12 µM
- TGI [30]: 32.9 µM
- GI50 [31]: 23.5 µM
- TGI [31]: > 100 µM
- GI50 [32]: 7.13 µM
- TGI [32]: 21.3 µM
- GI50 [33]: 10.1 µM
- TGI [33]: 22 µM
- GI50 [34]: 11.9 µM
- TGI [34]: 26.4 µM
- GI50 [35]: 6.57 µM
- TGI [35]: 24.6 µM
- GI50 [36]: 10.4 µM
- TGI [36]: 26.2 µM
- GI50 [37]: 4.78 µM
- TGI [37]: 18.9 µM
- GI50 [38]: 28.1 µM
- TGI [38]: > 100 µM
- GI50 [39]: 5.02 µM
- TGI [39]: > 100 µM
- GI50 [40]: 12.5 µM
- TGI [40]: 25.1 µM
- GI50 [41]: 4.87 µM
- TGI [41]: 56.7 µM
- GI50 [42]: 13.4 µM
- TGI [42]: 32 µM
- GI50 [43]: 4.28 µM
- TGI [43]: 19 µM
- GI50 [44]: 15.7 µM
- TGI [44]: 67.6 µM
- GI50 [45]: 24.5 µM
- TGI [45]: 89.6 µM
- GI50 [46]: 19.6 µM
- TGI [46]: 40.9 µM
- GI50 [47]: 15.6 µM
- TGI [47]: 38.3 µM
- GI50 [48]: 13.6 µM
- TGI [48]: 58.6 µM
- GI50 [49]: 3.59 µM
- TGI [49]: 19.1 µM
- GI50 [50]: 13.6 µM
- TGI [50]: 28.8 µM
- GI50 [51]: 9.78 µM
- TGI [51]: 21.6 µM
- GI50 [52]: 10.7 µM
- TGI [52]: 32.4 µM
- GI50 [53]: 4.67 µM
- TGI [53]: > 100 µM
- GI50 [54]: 10.6 µM
- TGI [54]: 30.9 µM
- GI50 [55]: 15.1 µM
- TGI [55]: 28.6 µM
- GI50 [56]: 2.33 µM
- TGI [56]: 10.7 µM
- GI50 [57]: 12.1 µM
- TGI [57]: 25.5 µM
- GI50 [58]: 8.98 µM
- TGI [58]: 22.3 µM
